One data set deals with Gram negative strains. The experiment in a line: Antibiotic activity, plate counts on Mueller-Hinton agar, Gram negative ATCC strains. Type of data set: cell-based. As to conditions: 2 mg/ml, 1 mg/ml; plate counts after overnight incubation at 37° C. How it is done:
The antibiotic activity of S-2-amino-3(3-phenylacetylimidazol-4-yl)propanoic acid (Compound A) was tested with a panel of standard ATCC bacteria, including 13315 Proteus vulgaris, 13883 Klebsiella pneumoniae, 25922 Escherichia coli, 27853 and Pseudomomas aeruginosa.
Doubling dilutions of Compound A were tested on its antibiotic potentials. […] Plate counts were performed. All petri plates inoculated with 1 ml 0.5McFarland turbidity of corresponding ATCC strain.

For a further data set, the system named is Gram positives. The experiment in a line: Antibiotic activity, plate counts on Mueller-Hinton agar, Gram positives. It is filed as cell-based. As to conditions: plate counts after overnight incubation at 37° C.
The next data set relates to U-87 cells. The experiment in a line: Cell viability (cell count) with U-87 cells. Type of data set: cell-based. As to conditions: Homo sapiens, U-87 MG, 72 hours, 37° C., MEM pH 7.0, read-out: EC90 (concentration resulting in greater than 90% decrease of cell numbers).
A further data set deals with HepG2 cells. In words: Cell viability of HepG2 cell line. As to conditions: Homo sapiens. Type of data set: cell-based. How it is done: The antineoplastic activities of Compound A were tested with U-87, a human glioblastoma/astrocytoma cell line and HepG2, a human liver carcinoma cell line.
The antineoplastic activity of Compound A was also measured with HepG2 cells.

A further data set has as its system mice. The experiment in a line: Preclinical safety study in mice. It is filed as in vivo. As to conditions: 300 mg/kg or 500 mg/kg orally (PO), up to 72 hours. The procedure: Preclinical safety studies were performed with administration of different levels of doses of Compound A to mice. Toxicity was analyzed with standard clinical chemical and histopathological examination. Five mice (n=5) were treated with 300 mg/kg or 500 mg/kg orally (PO) with one hour pretreatment for PO. Autonomic signs/mortality was measured during the first hour and mortality was measured again at 3, 24, 48 and 72 hours after administration.

In a further data set the test system is caspase 3. In words: In vitro caspase assay (ELISA) in U-87 cells. As to conditions: 5 mM, 18 hours after the addition. Type of data set: cell-based, human. The procedure: U-87 cells were used to test the effect of Compound A on the apoptotic pathway.
U-87 cells were seeded in MEM alone or in MEM supplemented with 5 mM of Compound A, in MTP. For in vitro caspase assay, the cell culture plates were removed from incubator, cells were lysed and centrifuged and the supernatant was tested for caspase levels (C3). Supernatants from each sample were tested side by side on a new microtitre plate by ELISA with AP labelled IgG C3 antibody, pNPP chromogen (Enzo Diagnostics, Farmingdale, N.Y.). Caspase assays were performed immediately after the addition of the MEM medium, with or without Compound A, and 18 hours after the addition.
On the technique in general: ELISA stands for enzyme-linked immunosorbent assay.

With `N[C@@H](Cc1cncn1C(=O)Cc1ccccc1)C(=O)O` [Compound A, (S)-2-amino-3-(3-phenylacetylimidazol-4-yl) propanoic acid], in the data set with Gram negative strains, the “inhibition of Gram negative strains” value is recorded as “did show inhibition”. For the same compound, the “inhibition of Gram positives” value in the data set with Gram positives is “No inhibition”. The EC90 in the data set on U-87 cells and with HepG2 cells was 5 mM in each case. Moreover, the cytotoxicity at 5000 µM in the data set with HepG2 cells (5 mM, read-out: decrease in cell viability) is more than 90%. The “toxicity (autonomic signs/mortality, clinical chemical and histopathological examination)” value in the data set on mice was “No toxicity was observed”. In addition, the “increase of caspase 3” value with caspase 3 is listed as “Exponential increase, in the scale of several orders of magnitude”.
